From US11866483B2, “Fibrosis-inhibiting composition, cells producing same, and cell sheet comprising said cells” (KanonCure, Inc., priority 2018, dated 2024) come the findings set out here.

One assay concerns MMP-1. The assay can be described thus: Western blotting of culture supernatant of UE7T-13 cells, MMP-1. It is filed as cell-based. The settings on record: 15 μM IC-2, UE7T-13 cells, culture supernatant Day 9, vs 0.1% DMSO. Here is the method:
(§1) The number of the culture dishes prepared was 6.
(§2) The culture medium was exchanged in the same manner as Day 0. […] That is, the cells of chemical-untreated group, of which culture medium was collected for MSC, were seeded on 3 culture dishes with a diameter of 10 cm.
(§3) (2) A 12 ml aliquot of the supernatant was transferred to an Amicon Ultra-15 Centrifugal Filter Unit and was centrifuged at 5,000 g for 60 to 90 min.
(§4) (3) The absorbance of the enriched culture supernatant (secretome) was measured using a NanoDrop at 280 nm and the protein level was assayed. The blank culture medium and 2× modified RIPA buffer were added to adjust the protein concentration to 1.0 μg/μl. Then, a sonicator (BioRuptur manufactured by COSMO BIO, Tokyo, Japan) was used to perform the total 1 min and 4 cycles of sonication, each cycle including sonication at 200 W for 15 sec and a pause for 30 sec in ice bath. Then, 5×SDS sample buffer was added to adjust the protein concentration to 0.8 μg/μl. Finally, a block incubator (IKA, Staufen, Germany) was used for heat denaturing at 98° C. for 5 min. […]
(§5) After completion of the primary antibody reaction, the membranes were washed in a suitable volume of TBS-T for 10 min 3 times. […] After that, 1 ml of ECL Prime liquid (GE Healthcare Life Sciences) was applied to each membrane of which chemiluminescence was detected with a LAS-4000 (Fujifilm Corporation, Tokyo, Japan).
(In general: In western blotting, separated proteins are transferred to a membrane and probed.)

The next assay relates to MMP-2. The assay can be described thus: Western blotting of culture supernatant of UE7T-13 cells, MMP-2. The format is cell-based. The settings on record: 15 μM IC-2, UE7T-13 cells, culture supernatant Day 9, vs 0.1% DMSO. Here is the method:
as §1, §2, §3, §4, §5

The test system of the next assay is MMP-13 (active form). The assay can be described thus: Western blotting of culture supernatant of UE7T-13 cells, MMP-13. It is filed as cell-based. Conditions: 15 μM IC-2, UE7T-13 cells, culture supernatant Day 9, vs 0.1% DMSO. Here is the method: as §1, §2, §3, §4, §5
A further assay relates to MMP-14. The assay can be described thus: Western blotting of culture supernatant of UE7T-13 cells, MMP-14. The settings on record: 15 μM IC-2, UE7T-13 cells, culture supernatant Day 9, vs 0.1% DMSO. The format is cell-based. As to the method:
as §1, §2, §3, §4, §5

For the next assay, the system named is thioredoxin (TRX). The settings on record: 15 μM IC-2, UE7T-13 cells, culture supernatant Day 9.

Experimental for thioredoxin (TRX): Expression and production of MMP family members and TRX in cultured cells or the secreted products of those cells were determined by Western blotting and ELISA.
Cells: bone marrow-derived mesenchymal stem cell line, UE7T-13 cells.
UE7T-13 cells were seeded on each culture dish with a diameter of 10 cm such that the cell count in each dish was 9.0×10^3 cells/cm^2. The number of the culture dishes prepared was 6.
Cells in the remaining 3 culture dishes were treated with DMSO as control. Specifically, DMSO was added by completely exchanging the culture medium with DMEM/10% FBS containing DMSO at the final concentration of 0.1%.
For the DMSO treatment control, the culture medium was completely exchanged with DMEM/0.05% FBS containing DMSO at the final concentration of 0.1%. For the MSC group, the culture medium was completely exchanged with DMEM/0.05% FBS.
(1) A 5 ml aliquot of culture medium was collected from the culture dishes and these aliquots were combined in one tube for each group. […]
The aliquots of culture supernatants collected at Day 9 for ELISA assay were used to determine the production of thioredoxin by ELISA. […] The absorbance at 450 nm was measured using a microplate reader (Tecan Group Ltd). The content of thioredoxin in the culture supernatants was calculated from the absorbance using the calibration curve.

As to `O=C1[C@H](c2ccccc2)N2C(=O)CCN(C(=O)NCc3ccccc3)[C@H]2CN1Cc1cccc2ccccc12` [IC-2, (6S, 9aS)-6-phenyl-8-naphthalen-1-ylmethyl-4,7-dioxo-hexahydro-pyrazino[1,2-a] pyrimidine-1-carbocylic acid benzylamide], in the assay on MMP-1, the “MMP-1 increase as compared to DMSO control group (chemiluminescence band intensity)” value is listed as “about 4.1 fold”. For the same compound, the “MMP-2 increase as compared to DMSO control group (chemiluminescence band intensity)” value with MMP-2 was “about 1.5 fold”. Moreover, the “MMP-13 (active form) increase as compared to DMSO control group (chemiluminescence band intensity)” value in the assay with MMP-13 (active form) is “about 5.1 fold”. For the same compound, the “MMP-14 increase as compared to DMSO control group (chemiluminescence band intensity)” value with MMP-14 is reported as “about 2.1 fold”. In addition, in the assay on thioredoxin (TRX), the “production of thioredoxin, increase (ELISA)” value turned out to be 1.5 fold.
